Measurements published in patent US12122812B2, “Method for preparing biomaterial having selectively functionalized tyrosine, biomaterial having selectively functionalized tyrosine, and pharmaceutical composition containing same as active ingredient” (SEOUL NATIONAL UNIVERSITY R&DB FOUNDATION, priority 2018, dated 2024).

What was measured:
[1] = test system: HeLa cells; experiment: Cytotoxicity by cell counting kit-8 (CCK-8) viability test; assay type: cell-based; settings: 0.1 to 100 μM
Procedure: The cytotoxicity was evaluated in HeLa cells by cell counting kit-8 (CCK-8) viability test.
Particularly, HeLa cells were seeded in a 96-well tissue culture plate at the density of 5,000 cells/well and cultured in 100 μL of DMEM (Dulbecco's Modified Eagle's Medium) supplemented with 10% FBS (fetal bovine serum) for 24 hours. After replacing the medium with 90 μL of a fresh medium, 10 μl of the compound prepared in Preparative Example 4 of various concentrations (final 0.5% DMSO) was added to each well of the plate, and the cells were further cultured for 24 hours and 48 hours. The cells were washed 3 times with a fresh medium to remove extracellular samples, and 100 μl of a fresh medium containing 10% CCK-8 was added to each well of the plate. After incubating the cells at 37° C. for 2 hours, OD450 was measured with a microplate reader (Molecular Devices Co., Menlo Park, Calif., USA). Only the background signal of CCK-8 was subtracted from all the samples. The cell viability was evaluated as the percentage of absorbance of the untreated cells to the control.

[2] = test system: Balb/c mice; experiment: Hematopoietic function of PEGylated rhEPO: hematocrit (HCT) in mice; assay type: in vivo; settings: normal male Balb/c mice, intravenous 20 μg/kg every 3 days
Procedure: In order to confirm whether the PEGylated rhEPO obtained in Example 1 maintained the hematopoietic function even after the PEGylation, the following experiment was performed, and the results are shown in FIG. 6.
The rhEPO without PEGylation and the PEGylated rhEPO (PEG-rhEPO) prepared in Example 1 were intravenously injected into Balb/c mice at a dose of 20 μg/kg every 3 days. In vivo activities were compared by measuring hematocrit (HCT), a reliable method for quantification of erythrocytes. As a control, phosphate buffered saline (PBS) was used.
Particularly, normal male Balb/c mice were purchased from Orient Bio Inc. (South Korea). The weight of the mice was 23-25 g, and the mice were housed in groups of 3-4 mice in one cage. Food and water were supplied freely (ad libitum), and each cage was allowed to have a 12-hour light/dark cycle under the conventional animal experiment system of KPC, Korea.
Each sample (rhEPO or PEG-rhEPO) ([…] in DPBS) was injected intravenously into normal male Balb/c mice (50 μL/mouse) every 3 days for 2 weeks. The same amount of DPBS was administered to the control group. A total of 21 mice were used in the experiment. Blood samples were collected every 3 days including day 0 to evaluate the hematopoietic effect. Hematocrit was evaluated by measuring the volume of the packed cells obtained by centrifugation performed immediately after the blood collection. Delta hematocrit (DHematocrit) was determined by the difference between the initial hematocrit for each mouse (day 0) and the hematocrit at each time point.

Row | Compound | Cytotoxicity (cell viability, CCK-8) ([1]; 24 hours) | Cytotoxicity (cell viability, CCK-8) ([1]; 48 hours) | HCT level compared with rhEPO without PEGylation (statistical analysis) [2] | HCT level (hematocrit) over time ([2]; blood sampled every 3 days for 15 days) | HCT level compared with control group (statistical analysis) ([2]; control PBS/DPBS)
1 | N[C@@H](Cc1ccc(OS(=O)(=O)Oc2ccc(C[C@H](N)C(=O)O)cc2)cc1)C(=O)O [Preparative Example 4, (2S,2'S)-3,3′-((sulfonylbis(oxy))bis(4,1-phenylene))bis(2-aminopropanoic Acid)] | did not show cytotoxicity | did not show cytotoxicity |  |  | 
2 | PEG-rhEPO: PEGylated recombinant human erythropoietin, PEG bound by sulfate bond to Tyr-49 |  |  | no significant difference | increased for 15 days | clear difference
